Measurements as given in article PMC3914206.

Experiments:
panel of 442 kinases [1] = molecular target: T1, panel of 442 kinases (Homo sapiens, UniProt Q9NRM7); type: binding; conditions: Compound Concentration 10 µM
T1 construct: purchased KINOMEscan
T1 sequence (Q9NRM7 1-1088): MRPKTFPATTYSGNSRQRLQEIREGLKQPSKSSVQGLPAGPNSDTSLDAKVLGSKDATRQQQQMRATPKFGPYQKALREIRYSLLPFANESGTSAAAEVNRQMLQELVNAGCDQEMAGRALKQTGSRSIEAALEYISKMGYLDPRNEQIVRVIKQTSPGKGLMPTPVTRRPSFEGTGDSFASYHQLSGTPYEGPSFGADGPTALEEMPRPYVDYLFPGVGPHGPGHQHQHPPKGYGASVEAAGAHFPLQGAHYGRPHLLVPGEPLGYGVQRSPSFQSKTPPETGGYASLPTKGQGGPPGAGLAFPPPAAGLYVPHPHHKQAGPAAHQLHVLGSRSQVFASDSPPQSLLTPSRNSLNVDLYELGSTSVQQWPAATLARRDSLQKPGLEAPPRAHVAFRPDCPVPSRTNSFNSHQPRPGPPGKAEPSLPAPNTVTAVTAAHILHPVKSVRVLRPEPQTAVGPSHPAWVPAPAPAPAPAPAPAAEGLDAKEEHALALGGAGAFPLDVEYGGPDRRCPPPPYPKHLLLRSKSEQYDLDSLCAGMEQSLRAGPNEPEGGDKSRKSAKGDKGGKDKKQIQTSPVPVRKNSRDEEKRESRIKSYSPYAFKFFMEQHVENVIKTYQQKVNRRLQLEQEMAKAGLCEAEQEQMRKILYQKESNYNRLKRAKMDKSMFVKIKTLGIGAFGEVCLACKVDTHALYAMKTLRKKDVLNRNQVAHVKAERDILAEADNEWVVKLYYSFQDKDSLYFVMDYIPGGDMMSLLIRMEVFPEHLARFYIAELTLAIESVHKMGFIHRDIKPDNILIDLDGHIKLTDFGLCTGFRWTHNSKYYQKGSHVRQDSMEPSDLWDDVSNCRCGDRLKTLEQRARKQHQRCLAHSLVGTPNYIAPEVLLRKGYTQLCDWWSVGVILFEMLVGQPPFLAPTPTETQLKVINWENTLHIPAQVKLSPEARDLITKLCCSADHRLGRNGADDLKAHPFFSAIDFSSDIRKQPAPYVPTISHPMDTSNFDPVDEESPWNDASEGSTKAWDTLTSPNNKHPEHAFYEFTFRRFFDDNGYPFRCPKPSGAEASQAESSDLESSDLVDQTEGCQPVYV
Description: (§1) We assessed the selectivity of members of this scaffold using the KINOMEscan methodology across a near comprehensive panel of 442 kinases [[18,27]].

panel of 442 kinases [2] = molecular target: T2, panel of 442 kinases (Homo sapiens, UniProt Q86UE8); type: binding; conditions: kinase TLK2; compound concentration 10 µM
T2 construct: purchased KINOMEscan
T2 sequence (Q86UE8 whole entry): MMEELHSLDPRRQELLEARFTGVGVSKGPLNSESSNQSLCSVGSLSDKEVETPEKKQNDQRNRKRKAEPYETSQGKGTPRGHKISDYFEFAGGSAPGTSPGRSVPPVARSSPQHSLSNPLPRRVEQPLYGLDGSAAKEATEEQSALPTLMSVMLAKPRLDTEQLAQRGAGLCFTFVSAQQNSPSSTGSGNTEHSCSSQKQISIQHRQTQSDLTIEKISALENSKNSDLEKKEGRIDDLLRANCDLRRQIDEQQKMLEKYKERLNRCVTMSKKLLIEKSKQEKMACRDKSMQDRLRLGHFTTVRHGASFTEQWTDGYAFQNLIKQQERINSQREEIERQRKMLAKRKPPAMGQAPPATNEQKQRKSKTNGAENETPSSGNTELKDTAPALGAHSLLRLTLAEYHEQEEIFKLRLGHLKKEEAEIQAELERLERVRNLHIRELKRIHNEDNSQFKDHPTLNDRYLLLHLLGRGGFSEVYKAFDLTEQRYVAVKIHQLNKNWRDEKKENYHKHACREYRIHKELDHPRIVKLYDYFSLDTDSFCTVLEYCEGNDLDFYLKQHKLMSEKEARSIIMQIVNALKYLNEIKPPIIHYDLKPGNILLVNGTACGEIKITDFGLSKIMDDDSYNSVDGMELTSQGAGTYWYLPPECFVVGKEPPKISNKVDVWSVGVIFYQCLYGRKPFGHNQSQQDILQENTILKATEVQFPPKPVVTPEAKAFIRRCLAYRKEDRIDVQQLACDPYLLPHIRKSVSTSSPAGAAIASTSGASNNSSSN
Description: as §1

In the case of `CCOc1cc(C(=O)N2CCC(N3CCN(C)CC3)CC2)ccc1Nc1ncc2c(n1)N(C1CCCC1)c1ccccc1C(=O)N2C` [Compound 26], the “KINOMEscan: LATS2” value (panel of 442 kinases [1]) is reported as 93 and the “% Ctrl, TLK2” value (panel of 442 kinases [2]) is reported as 100 % Ctrl.
In the case of `COc1cc(C(=O)N2CCC(N3CCN(C)CC3)CC2)ccc1Nc1ncc2c(n1)N(C1CCCC1)c1ccccc1C(=O)N2C` [Compound 25, 11-cyclopentyl-2-((2-methoxy-4-(4-(4-methylpiperazin-1-yl)piperidine-1-carbonyl)phenyl)amino)-5-methyl-5H-benzo[e]pyrimido[5,4-b][1,4]diazepin-6(11H)-one], the “KINOMEscan: LATS2” value (panel of 442 kinases [1]) is reported as 92 and the “% Ctrl, TLK2” value (panel of 442 kinases [2]) is reported as 94 % Ctrl.
With `COc1cc(C(=O)N2CCC(N3CCN(C)CC3)CC2)ccc1Nc1ncc2c(n1)N1CCc3cccc(c31)C(=O)N2C` [Compound 24] the “% Ctrl, TLK2” value (panel of 442 kinases [2]) was 98 % Ctrl.
`COc1cc(C(=O)N2CCC(N3CCN(C)CC3)CC2)ccc1Nc1ncc2c(n1)N(C)c1ccccc1C(=O)N2C` [15 (LRRK2-IN-1)] was tested, and the “KINOMEscan: LATS2” value (panel of 442 kinases [1]) was 95 and the “% Ctrl, TLK2” value (panel of 442 kinases [2]) was 99 % Ctrl.
